Measurements reported in ChEMBL document CHEMBL4371089, “Novel, potent, selective, and brain penetrant phosphodiesterase 10A inhibitors” (Bioorg Med Chem Lett, 2019).
One block for each molecule: values may come before it.

How the values were obtained:
[1] = rat, in vivo, ip, 2 mg/kg, 1 h
[2] = rat, in vivo, ip, 2 mg/kg, 1 h; remark: listed apart in the source
[3] = in vivo; conditions: rat, iv, 2 mg/kg
[4] = in vivo; conditions: rat, po, 2 mg/kg
[5] = in vivo; conditions: rat, plasma, ip, 2 mg/kg
[6] = in vivo; conditions: rat, brain, ip, 2 mg/kg
[7] = in vivo; conditions: rat, brain/plasma, ip, 2 mg/kg
[8] = in vivo; conditions: rat, brain/plasma, ip, 2 mg/kg; remark: listed apart in the source
[9] = test system: P-gp; assay: in vitro; conditions: dog, MDCK-MDR1

- Cp(f)/dose [1]: 0.1 ng/mL
- Druguptake(free)/dose [2]: 0.4 ng/mL
- Vd [3]: 2.4 L/kg
- bioavailability [4]: 19%
- concentration at 1 h [5]: 72 ng/mL
- concentration at 1 h [6]: 118 ng/mL
- Kp at 1 h [7]: 1.67
- Kp uu at 1 h [8]: 3.81
- Papp [9]: 33 ×10⁻⁶ cm/s
Compound: CCCc1nc(C)c2c(C)nc3ccc(OC)nc3n12

Compound: CCCc1nc(C)c2c(C)nc3scnc3n12
- Papp [9]: 68 ×10⁻⁶ cm/s

Compound: COc1cc(OC)c2nnc3c(c(C4CC4)nn3C)c2c1
- Papp [9]: 62 ×10⁻⁶ cm/s

Compound: Cn1nc(-c2ccccc2Cl)c2c3cc(F)cc(F)c3nnc21
- Papp [9]: 36 ×10⁻⁶ cm/s
